Assay results published in PMC6681393, “Intra-Nasally Administered Oligopeptide Lunasin Acts as a Possible Anti-Psychotic Agent in Mice Models” (Medicina, 2019).
“Also recorded” adds a separate entry of the source.

Columns and labels:
[1] = target: 5-HT2A receptor; details: cited from earlier work
Method: (§1) The aims of the present studies were: to test whether lunasin would show an influence on the dopaminergic system after intranasal administration, and to examine the effect(s) of lunasin on serotonin and glutamatergic systems, which could play an essential role in antipsychoti ... || The binding assay was performed by Eurofins Cerep (France) according to Bryant et al., 1996 [15]. Briefly, the binding of lunasin to 5-HT2A and 5-HT2C receptors was estimated on its ability to displace the specific binding of [^125I]DOI on cell membrane suspensions of HEK-293 cells expressing human recombinant 5-HT2A and 5-HT2C receptors. The radioligand [^125I]DOI has high affinity for 5-HT2A (Kd: 0.3 nM) and 5-HT2C (Kd: 0.9 nM) receptors. Lunasin was tested at concentrations of 1, 10 and 100 µM. The results were expressed as a percent of radioligand specific binding (n = 2).

[2] = target: 5-HT2C receptor; details: cited from earlier work
Method: as §1

[3] = system: PCP-induced hyperlocomotion in ICR mice; assay: Open field locomotor activity, phencyclidine-induced hyperlocomotion; assay type: in vivo, male albino ICR mice; details: PCP 5 mg/kg i.p.; p < 0.0001 vs control; n = 7–8
[4] = system: hyper-locomotion; details: published data; cited from earlier work
Method: The selected DOI dose in our behavioural studies was 3 mg/kg, which according to published data, corresponds to the dose range (0.625-5.0 mg/kg) that induces hyper-locomotion. […] These altered parameters ...

[5] = system: brain monoamine levels, DOI-treated mice; assay: Brain monoamines and metabolites, DOI-treated mice (UHPLC-TOF-MS); assay type: in vivo, male albino ICR mice; details: DOI 3 mg/kg i.p.
[6] = system: DOI-induced hyperlocomotion in ICR mice; assay: Open field locomotor activity, DOI-induced hyperlocomotion; assay type: in vivo, male albino ICR mice; details: DOI 3 mg/kg i.p.; p = 0.0033 vs control; n = 7–8
[7] = system: amphetamine-induced hyperlocomotion in ICR mice; assay: Open field locomotor activity, amphetamine-induced hyperlocomotion; assay type: in vivo, male albino ICR mice; details: amphetamine 3 mg/kg i.p.; p = 0.0008 vs control; n = 7–8
[8] = system: brain monoamine levels, amphetamine-treated mice; assay: Brain monoamines and metabolites, amphetamine-treated mice (UHPLC-TOF-MS); assay type: in vivo, male albino ICR mice; details: amphetamine 3 mg/kg i.p.
[9] = radioligand affinity quoted in method, Eurofins Cerep, ref Bryant et al., 1996 [15]
[10] = comparison for lunasin, abstract, source not printed there

COc1cc(CC(C)N)c(OC)cc1I (centres unmarked) [[125I]DOI]
Kd [1, 9]: 0.3 nM | Kd [2, 9]: 0.9 nM

Cl.c1ccc(C2(N3CCCCC3)CCCCC2)cc1 [PCP, 1-(1-phenylcyclohexyl)piperidine hydrochloride, reference compound]
effect on locomotion versus control [3]: induced hyperlocomotion

COc1cc(CC(C)N)c(OC)cc1I (centres unmarked) [DOI, 1-(2,5-dimethoxy-4-iodophenyl)-2-aminopropane, reference compound]
dose range that induces hyper-locomotion [4]: 0.625 to 5.0 mg/kg | receptor affinity, concentration range [1, 10]: nM concentrations | receptor affinity, concentration range [2, 10]: nM concentrations | brain 5-HIAA level [5]: up-regulated levels of serotonin and 5-HIAA; also recorded: considerable elevation of brain levels of serotonin and its metabolite 5-HIAA | brain dopamine concentration [5]: did not change dopamine brain concentrations; also recorded: did not change the dopamine concentration | brain serotonin level [5]: up-regulated levels of serotonin and 5-HIAA; also recorded: considerable elevation of brain levels of serotonin and its metabolite 5-HIAA | brain DOPAC concentration ([5]; p < 0.001): elevated; also recorded: increasing DOPAC levels | brain noradrenaline level ([5]; p < 0.05): decreased by DOI treatment; also recorded: lowered those of HVA and noradrenaline | brain HVA level ([5]; p = 0.0022): decreased by DOI treatment; also recorded: lowered those of HVA and noradrenaline | effect on locomotion versus control [6]: induced hyperactivity

C[C@H](N)Cc1ccccc1 [Amphetamine, d-amphetamine, reference compound]
increase in total walked distance versus control [7]: approximately 2 -fold | brain DOPAC concentration [8]: Neither lunasin per se nor amphetamine changed the DOPAC concentration | brain 5-HIAA level ([8]; p < 0.0001): increased brain serotonin and its metabolite 5-HIAA levels | brain dopamine level ([8]; p < 0.0001): markedly increased the dopamine level | brain noradrenaline level ([8]; p < 0.0001): augmented by amphetamine | brain serotonin level ([8]; p < 0.0001): increased brain serotonin and its metabolite 5-HIAA levels | brain HVA level ([8]; p = 0.0079): increased by amphetamine
